Measurements as given in patent US20250188032A1, “NITROGEN-CONTAINING HETEROCYCLIC COMPOUNDS AND USES THEREOF” (BNH RESEARCH CO., LTD., priority 2022, published 2025).

Assays:
Assay in all cases: HDAC catalytic activity, fluorogenic substrate
Type in all cases: biochemical
Settings in all cases: 10-dose, 3-fold serial dilution starting at 100 μM, duplicates
[1] = target: T1, HDAC6 (Homo sapiens, UniProt Q9UBN7)
T1 sequence (Q9UBN7 1-1215): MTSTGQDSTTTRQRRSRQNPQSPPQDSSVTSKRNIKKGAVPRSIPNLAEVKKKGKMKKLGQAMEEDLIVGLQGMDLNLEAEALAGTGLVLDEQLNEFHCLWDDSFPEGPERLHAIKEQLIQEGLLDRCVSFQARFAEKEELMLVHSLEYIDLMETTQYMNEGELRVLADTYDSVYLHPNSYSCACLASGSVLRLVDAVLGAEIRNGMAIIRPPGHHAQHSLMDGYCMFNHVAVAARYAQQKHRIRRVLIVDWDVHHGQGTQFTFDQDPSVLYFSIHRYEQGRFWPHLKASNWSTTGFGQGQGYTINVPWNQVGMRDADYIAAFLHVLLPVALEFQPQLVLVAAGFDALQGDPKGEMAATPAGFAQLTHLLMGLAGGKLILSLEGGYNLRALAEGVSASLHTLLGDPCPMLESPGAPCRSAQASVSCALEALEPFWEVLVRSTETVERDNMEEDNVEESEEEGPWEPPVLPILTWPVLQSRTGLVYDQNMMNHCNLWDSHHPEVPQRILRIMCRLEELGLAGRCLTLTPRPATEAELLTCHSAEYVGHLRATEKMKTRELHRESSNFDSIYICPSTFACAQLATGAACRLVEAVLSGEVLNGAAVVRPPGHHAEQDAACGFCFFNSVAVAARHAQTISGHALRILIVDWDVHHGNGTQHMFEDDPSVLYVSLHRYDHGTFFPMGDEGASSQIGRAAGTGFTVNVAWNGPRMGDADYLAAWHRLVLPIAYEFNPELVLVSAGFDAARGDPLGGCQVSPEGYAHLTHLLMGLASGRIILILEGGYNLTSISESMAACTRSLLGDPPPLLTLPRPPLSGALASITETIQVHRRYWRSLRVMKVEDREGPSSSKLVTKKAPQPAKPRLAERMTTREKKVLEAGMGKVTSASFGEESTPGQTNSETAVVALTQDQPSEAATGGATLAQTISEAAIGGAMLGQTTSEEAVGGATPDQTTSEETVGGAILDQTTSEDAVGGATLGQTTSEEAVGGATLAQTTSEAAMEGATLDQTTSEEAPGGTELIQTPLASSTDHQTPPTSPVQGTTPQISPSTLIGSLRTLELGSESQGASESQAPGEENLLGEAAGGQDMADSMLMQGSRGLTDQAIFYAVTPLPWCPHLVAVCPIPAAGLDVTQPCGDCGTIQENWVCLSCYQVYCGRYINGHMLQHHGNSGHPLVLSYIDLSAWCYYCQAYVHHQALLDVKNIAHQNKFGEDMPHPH
Procedure: (§1) The compound (racemate) was resuspended in 100 mM DMSO and tested in a 10-dose IC50 with 3-fold serial dilution starting at 100 μM against HDACs 1-9, and 11. As reference compounds, Trichostatin A (TSA) and TMP269 were tested in a 10-dose IC50 with 3-fold serial dilution starting at 10 μM or 1 μM.
(§2) 10 μM Fluorogenic peptide from p53 residues 379-382 (RHKK(Ac)AMC) was used for the substrate for HDAC 1, 2, 3, and 6, 50 μM Fluorogenic HDAC Class2a Substrate (Trifluoroacetyl Lysine) was used for the substrate for HDAC 4, 5, 7, 9, and 11, 100 μM Fluorogenic peptide from p53 residues 379-382 (RHK(Ac)K(Ac)AMC) was used for the substrate for HDAC8.
(§3) IC50 values were calculated using the GraphPad Prism 4 program based on a sigmoidal dose-response equation and the blank (DMSO) value concentration was entered as 1.00E-12 M for curve fitting.

[2] = target: T2, HDAC11 (Homo sapiens, UniProt Q96DB2)
T2 sequence (Q96DB2 1-347): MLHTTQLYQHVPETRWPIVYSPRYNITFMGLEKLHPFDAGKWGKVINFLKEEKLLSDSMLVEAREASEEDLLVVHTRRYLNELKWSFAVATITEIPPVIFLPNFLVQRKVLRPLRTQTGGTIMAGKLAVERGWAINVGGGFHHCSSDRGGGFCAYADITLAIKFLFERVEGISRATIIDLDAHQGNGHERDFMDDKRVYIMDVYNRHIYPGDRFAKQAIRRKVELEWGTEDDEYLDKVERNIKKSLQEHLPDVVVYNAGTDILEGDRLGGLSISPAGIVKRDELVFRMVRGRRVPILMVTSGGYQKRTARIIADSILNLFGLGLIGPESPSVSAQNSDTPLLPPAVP
Procedure: as §1, §2, §3

[3] = target: HDAC2 (Homo sapiens, UniProt Q92769)
Procedure: as §1, §2, §3

[4] = target: T3, HDAC7 (Homo sapiens, UniProt Q8WUI4)
T3 sequence (Q8WUI4 1-952): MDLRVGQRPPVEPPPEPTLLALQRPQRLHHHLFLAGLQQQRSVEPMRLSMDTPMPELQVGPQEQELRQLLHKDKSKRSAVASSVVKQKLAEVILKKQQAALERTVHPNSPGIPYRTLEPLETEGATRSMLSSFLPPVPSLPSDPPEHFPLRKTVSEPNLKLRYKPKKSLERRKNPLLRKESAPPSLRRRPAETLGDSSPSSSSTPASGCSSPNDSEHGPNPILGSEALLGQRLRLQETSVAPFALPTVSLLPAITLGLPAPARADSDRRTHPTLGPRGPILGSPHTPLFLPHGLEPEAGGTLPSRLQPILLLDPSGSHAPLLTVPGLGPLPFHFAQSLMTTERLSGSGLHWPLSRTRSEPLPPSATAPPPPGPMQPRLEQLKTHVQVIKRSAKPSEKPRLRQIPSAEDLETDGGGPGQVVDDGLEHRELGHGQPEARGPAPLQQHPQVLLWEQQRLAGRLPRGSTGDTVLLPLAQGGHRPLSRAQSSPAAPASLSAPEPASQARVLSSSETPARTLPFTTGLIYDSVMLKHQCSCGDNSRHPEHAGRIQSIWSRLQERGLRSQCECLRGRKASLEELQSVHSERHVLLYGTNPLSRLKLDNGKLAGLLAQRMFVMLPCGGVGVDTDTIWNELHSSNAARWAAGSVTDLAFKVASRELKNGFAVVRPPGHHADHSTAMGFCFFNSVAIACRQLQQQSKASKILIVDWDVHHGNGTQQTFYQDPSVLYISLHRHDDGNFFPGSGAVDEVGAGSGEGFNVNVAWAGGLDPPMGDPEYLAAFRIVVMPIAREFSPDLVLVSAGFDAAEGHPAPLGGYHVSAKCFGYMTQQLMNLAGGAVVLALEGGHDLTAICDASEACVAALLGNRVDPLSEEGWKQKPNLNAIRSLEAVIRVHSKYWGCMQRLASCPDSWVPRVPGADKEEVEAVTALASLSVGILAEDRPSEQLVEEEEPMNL
Procedure: as §1, §2, §3

Sequence of HDAC2 (Q92769 whole entry): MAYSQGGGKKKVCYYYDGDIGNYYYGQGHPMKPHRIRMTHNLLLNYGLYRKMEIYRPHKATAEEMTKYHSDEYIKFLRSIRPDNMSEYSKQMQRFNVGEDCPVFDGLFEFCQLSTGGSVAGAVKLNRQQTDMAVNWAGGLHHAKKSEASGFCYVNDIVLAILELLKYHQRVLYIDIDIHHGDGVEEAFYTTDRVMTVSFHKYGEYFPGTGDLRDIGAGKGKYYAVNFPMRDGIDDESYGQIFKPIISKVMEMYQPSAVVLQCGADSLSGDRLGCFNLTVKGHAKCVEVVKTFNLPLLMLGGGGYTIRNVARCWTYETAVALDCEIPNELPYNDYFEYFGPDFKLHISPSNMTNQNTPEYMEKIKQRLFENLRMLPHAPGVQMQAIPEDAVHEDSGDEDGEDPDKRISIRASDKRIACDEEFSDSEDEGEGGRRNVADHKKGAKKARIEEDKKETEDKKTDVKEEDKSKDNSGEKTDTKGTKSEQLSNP

CC1CCC(C(=O)O)CN1C(=O)Cc1ccc(F)cc1Cl (racemic) [BnH12001, 1-(2-(2-chloro-4-fluorophenyl)acetyl)-6-methylpiperidine-3-carboxylic acid]
did not show any inhibitory effect: Inhibitory effect on HDAC6 catalytic activity [1] | Inhibitory effect on HDAC11 catalytic activity [2] | Inhibitory effect on HDAC2 catalytic activity [3] | Inhibitory effect on HDAC7 catalytic activity [4]
